Key:
[1] = no reference given; cited from earlier work
[2] = system: human RPTECs; experiment: GSH-Glo glutathione assay; assay type: cell-based; settings: ~48 h, high concentrations
Protocol: (§1) Frozen RPTECs vials were removed from liquid nitrogen storage and placed in a 37 °C water bath until the contents were completely thawed. The cells were gently resuspended and dispensed into a cell culture flask at a seeding density of ∼7500 cells/cm^2. The flask was placed in a 37 °C, 5% CO2 incubator. Cell cultures were given fresh medium the following morning and then every other day until the cell culture was approximately 90% confluent. When the cell culture was 90% confluent, medium was removed and the cells were rinsed with warmed PBS. Cells were harvested and split into new flasks based on a cell density of 7500 cells/cm^2. Cells were incubated at 37 °C for 3 days, with fresh medium added each day. Cells were harvested and diluted with growth medium to a density of 200,000 cells/mL. 100 μL of cell suspension per well (20,000 cells/well) was added to a clear-bottom 96-well microplate for luminescence assays. The plated cells were incubated in the 37 °C incubator for 3 days.
(§2) Each test compound (PG, GA, 4OMPG and 4OMGA) was initially reconstituted using DMSO at a concentration of 250 mg/mL. Serial dilutions of each compound were performed to reach concentrations of 4000 μM, 2000 μM, 1000 μM, 500 μM, 250 μM, 125 μM, 62.5 μM, 31.3 μM using warmed fresh supplemented medium with 0.4% (v/v) DMSO for all concentration levels. 100 μL of media containing the compound solution was added to the cells. Final concentrations of the compounds were 2000 μM, 1000 μM, 500 μM, 250 μM, 125 μM, 62.5 μM, 31.3 μM, 15.7 μM. AZ13599185 (tubulysin, 100 or 500 ng/mL) or cisplatin (30 μg/mL) and buthionine sulfoximine (BSO, 200 μM) were used as positive controls for CTG and GSH assays, respectively. 0.2% (v/v) DMSO in medium was used as the control for both assays, corrsponding to the final cocnetration of DMSO in the well. Three replicates for each compound at each concentration were prepared. Six replicates of positive or negative controls were prepared. Cells were incubated at 37 °C for approximately 48 h.
(§3) Cell media were removed and cells were washed twice with 200 μL of PBS buffer per well. CTG and GSH assay reagents were added to the wells and the assays were performed following the protocols of the Promega assay kits. Briefly, to perform the CTG assay, 100 μL of CTG solution was added into each well. The plate was gently shaken and incubated in the dark for 30 min and luminescence was measured using a PerkinElmer VICTOR X3 plate reader. To perform the GSH assay, luciferin-NT substrate and glutathione S-transferase were mixed into the GSH-GLo solution. 100 μL of the mixed solution was added into each well. The plate was gently shaken and incubated in the dark for at least 30 min. 100 μL of Luciferin Detection Reagent was added per well. The plate was gently shaken and incubated in the dark for at least 15 min. Luminescence was measured using a PerkinElmer VICTOR X3 plate reader.
(§4) For cell-based assays, data was normalized to the negative control. Cell viability and GSH level were expressed as Cell viability or GSH level=Luminescence(each well)/Luminescence(average of DMSO negative control)

[3] = system: dog RPTECs; experiment: GSH-Glo glutathione assay; assay type: cell-based; settings: ~48 h, high concentrations
Protocol: as §1, §2, §3, §4

[4] = Exposure comparison of PG and phase-I and phase-II metabolites in dog and human plasma; settings: oral EC MEDI7219 tablets; samples through 8 h; human PG 800 mg (N = 8), dog PG 200 mg/kg/day (N = 6)
Protocol: Dog blood was collected via jugular vein in potassium (K2) EDTA tubes and processed to plasma. Samples were centrifuged at approximately 3000 rpm for 5 min at approximately 4 °C within 30 min of collection. Plasma samples were acidified with 1% (v/v) formic acid (FA) to avoid degradation of PG and metabolites in plasma within 20 min of the start of centrifugation and then stored frozen (≤-60 °C). Acidified plasma was extracted using internal standard-spiked solution (100 mM ammonium bicarbonate: acetonitrile = 1:4). Samples were then centrifuged to collect supernatant, followed by drying to completion. The dried samples were reconstituted with 200 uL of 0.1% (v/v) formic acid in water. Samples were vortexed and centrifuged before injection. In order to assess potential impact of hemolysis on qualification of PG and its metabolites, hemolyzed plasma was prepared by spiking fully hemolyzed whole blood at an indicated percentage into plasma.
Separations were conducted on a reversed-phase column (Phenomenex, Kinetex F5, 2.6 μm 100 Å, 100 × 4.6 mm) at a flow rate of 0.7 mL/min at 40 °C. Mobile phase A was 0.1% formic acid in water and mobile phase B was 0.1% formic acid in methanol. The samples were analyzed on a SCIEX 6500+ QTRAP under negative ESI mode. The total run time was 5.5 min. Eight calibration standards and three quality control (LQC, MQC and HQC) samples were used for quantification.
The primary metabolites of PG were measured in dog and human plasma following oral administration of EC MEDI7219 tablets to examine a potential mechanism of the PG-mediated renal toxicity in dog and its possible translatability to humans. Plasma concentrations of PG, its phase-I metabolites GA and 4OMGA and phase-II glucuronide and glutathione conjugates were measured. The human and dog samples, collected through 8 h after administration, were analyzed and the results were compared (Figure , Figure S5). Based on allometric scaling method the highest daily dose administered in humans was approximately 8-fold less compared with the dose level tested in dogs.
Human (H) data is in black. Dog (D) data is in red (study 002). Concentration (mM) is in log10 scale. Data was normalized to PG dose (mg/kg/day). N = 8 for human (PG dosed at 800 mg with MEDI7219 tablets). N = 6 for dogs (PG dosed at 200 mg/kg/day). Below LLOQ values were set to 1/2 LLOQ for the calculation.

[5] = system: urine NGAL; settings: dog, in vivo
Protocol: In the first investigative 4-week study (study 002), dogs received EC tablets consisting of different combinations of the clinical formulation excipients (Table ) with or without PG once daily for 27 days. For groups receiving tablets with PG, each EC tablet contained 100 mg PG; the number of tablets administered each day (13–20 placed in size 12 gelatin capsules) was adjusted based on the most recent body weight to yield a target PG dose level of 200 mg/kg/day. Scheduled necropsies of all surviving animals were conducted on day 28 of the dosing phase. Samples for PG toxicokinetics were collected on days 1, 14, 21, and 25 of the dosing-phase. On days 1, 14, and 21 samples were collected: predose and approximately 1, 2, 3, 4, 6, 8, 12, and 24 h postdose. Days 25: predose and approximately 1, 2, 3, 4, 6, 8, 10, and 24 h postdose. […] NGAL was measured using an ELISA method and normalized to urine creatinine. Blood samples for standard clinical chemistry parameters, including creatinine and urea nitrogen, were collected from fasted dogs twice prior to the predose phase and before daily dose administration on Days 7, 14, and 21 of the dosing phase, as well as on the day of scheduled necropsy; samples were measured on a clinical chemistry analyzer using a validated method.

Row | Structure (SMILES) | GSH levels at high concentrations [2] | Plasma exposure, humans compared with dogs [4] | also measured
1 | O=C(O)c1cc(O)c(O)c(O)c1 [GA, Gallic acid] | reduction of GSH levels | comparable between the two species | Log P [1]: 0.91; GSH levels at high concentrations [3]: reduction of GSH levels
2 | COc1c(O)cc(C(=O)O)cc1O [Group 4OMGA, 4-O-methyl gallic acid] |  | comparable between the two species | 
3 | C[C@H](CCC(=O)[O-])[C@H]1CC[C@H]2[C@@H]3[C@H](O)C[C@@H]4C[C@H](O)CC[C@]4(C)[C@H]3CC[C@]12C.[Na+] [NaCDC, sodium chenodeoxycholate] |  |  | Urine NGAL levels [5]: did not induce elevations in NGAL levels
4 | CCCOC(=O)c1cc(O)c(OC)c(O)c1 [Group 4OMPG, 4-O-methyl propyl gallate, reference compound] | increases of GSH |  | 
5 | O=C(O)c1cc(O)c(O)c(OC2OC(C(=O)O)C(O)C(O)C2O)c1 (centres unmarked) [GA-3-Gluc, gallic acid-3-glucoronide] |  | lower exposure | 
